Literature values in patent US20040259949A1, “Method” (priority 2001, published 2004).

Experiments:
[1] = mice
[2] = rat model

Molecule | effect of PDT on healing of colonic anastomosis [1] | effect of PDT on viability of normal human fibroblasts (normal human fibroblasts) | influence of PDT on skin wound healing [2]
NCC(=O)CCC(=O)O [5-ALA, 5-amino-4-oxo-pentanoic acid] | no significant impairment in healing of colonic anastomosis | no effect on viability of normal human fibroblasts | –
benzoporphyrin derivative monoacid ring A [BDP-MA] | – | – | did not influence skin wound healing
